Experimental data from paper PMC9232501, “Results of the phase I CCTG IND.231 trial of CX-5461 in patients with advanced solid tumors enriched for DNA-repair deficiencies” (Nature Communications, 2022).
Where “and” joins values, the source holds several entries; their conditions need not be identical. Identical values can stand only once.

Assays:
HCT116 cells [1] = test: HCT116 cytotoxicity (WST-1 assay) with and without UVA radiation; type: cell-based, Human; settings: for WST-1 raw signal (Figure 5c): replicates
Description: (§1) Fig. 5 Comparison of G4 ligand photosensitization. […] Vertical axis, fractional survival, horizontal axis log10 drug concentration (M) (f) Representative images of CPD immunofluorescent staining under UV and drug treatment conditions for U2OS cells, quantified from biological duplicates in (g) (h) Scale bar = 100um. U2OS cells were treated with drug or vehicle control, then immediately irradiated with UVA 125 mJ/cm^2; and fixed 1 h later for immunofluorescence staining with CPD antibody. g Distribution of mean intensity of CPD level per cell (total n = in labels), with two biological repeats per condition. Vertical axis, mean CPD intensity per cell, horizontal axis, conditions (h) WT or KO XPA HAP1 cells assayed for cytotoxicity. Vertical axis, fractional survival (WST-1 assay). The horizontal axis, log10 drug concentration (M). Error bars = standard deviation of the mean. Three biological repeats per condition.
(§2) Human epidermal keratinocytes (HEKa) cells were sourced from Thermo Fisher Scientific, and were grown in EpiLife™ Medium with HKGS. HAP WT and XPA knockout cell lines (Horizon Discovery) were cultured in IMDM, 10% FCS. Human HCT116 cells, U2OS cells (ATCC) were grown in McCoy’s 5 A medium with 10% FBS and L-glutamine. All cell lines are mycoplasma free and have been authenticated by STR or SNP profiling. CX-5461 was provided by Senhwa Biosciences, Inc. PDS is from Sigma-Aldrich, BRACO-19 from Alfa Chemistry, PhENDC3 is from Sigma-Aldrich, γ -H2AX antibody from Abcam (1:1000 for IF) and CPD antibody (1:1500) from Cosmo Bio Ltd. (Catalog number: CAC-NM-DAD-001). The WST-1 assay was performed as previously described, γ H2AX foci staining was performed as previously described. Immunofluorescence staining of CPD was performed according to the protocol from the manufacturer (Cosmo Bio Ltd).

HCT116 cells [2] = test: ROS measurement with H2DCFDA before/after UVA 125 mJ/cm^2; type: cell-based, Human; settings: CX-5461 0.1 μM or PDS 10 μM for 1 h
Description: ROS measurement with H2DCFDA: HCT116 cells were treated with vehicle, CX-5461 0.1 μM or PDS 10 μM for 1 h, then were added with H2DCFDA for 45 min before initial fluorescence measurement. Cells were then irradiated with UVA 125 mJ/cm^2, and immediately sent for a second fluorescent measurement. The ratio of the second and the first fluorescent measurement was calculated as the level of ROS induced by UVA. Assays were performed in the 1-hour time frame within which UV damage manifests, in contrast to G4 ligand-induced damage which takes 3–4 h to be measurable.
(§3) Supplementary Figures and Tables
(§4) Supplementary Figure 1. UVA radiation increased double-stranded DNA breaks and ROS.
(§5) Representative pictures of g -H2AX immunofluorescent staining with and without UVA radiation, for […]
condition, quantified in (b) Quantile and mean intensity of g-H2AX level per cell, vertical axis. UV and drug factor conditions, horizontal axis. Experiments were repeated two times (biological duplicates) and similar results were obtained. Number of cells as in Figure 5 g (c) The ratio of ROS level measured after UVA irradiation versus before UVA irradiation was calculated. Biological triplicates. The horizontal bar = median. ***P<0.0001, Welch’s t-test; n=8
(1 picture or pasted object on this page, not shown here)

U2OS cells = test: CPD (cyclobutane pyrimidine dimer) immunofluorescence after UVA 125 mJ/cm^2; type: cell-based, Human; settings: 1 h compound exposure
Description: as §1
Human epidermal keratinocytes (HEKa) cells were sourced from Thermo Fisher Scientific, and were grown in EpiLife™ Medium with HKGS. HAP WT and XPA knockout cell lines (Horizon Discovery) were cultured in IMDM, 10% FCS. Human HCT116 cells, U2OS cells (ATCC) were grown in McCoy’s 5 A medium with 10% FBS and L-glutamine. All cell lines are mycoplasma free and have been authenticated by STR or SNP profiling. […]

[3] = test system: γ-H2AX (double-stranded DNA breaks); test: γ-H2AX immunofluorescent staining with and without UVA radiation; type: cell-based; settings: CX5461 10^-8M, 5x10-8M; PDS 20 x 10^-6M
Description: as §2, §3, §4, §5
condition, quantified in (b) Quantile and mean intensity of g-H2AX level per cell, vertical axis. UV and drug factor conditions, horizontal axis. […] Number of cells as in Figure 5 g (c) The ratio of ROS level measured after UVA irradiation versus before UVA irradiation was calculated. […]

[4] = test system: BRCA2 and BRCA1-deficient tumor models; settings: cited from earlier work

SMILES: NCCOc1cc(C(=O)Nc2cc(OCCN)c3ccccc3n2)nc(C(=O)Nc2cc(OCCN)c3ccccc3n2)c1 [PDS, pyridostatin]
- potentiation of UVA-induced cytotoxicity (HCT116 cells [1]; UV 5 mJ/cm^2 and 125 mJ/cm^2): not
- WST-1 raw signal (Figure 5c) (HCT116 cells [1]; conc 1.56e-6, 5mJ/cm2 UV): 3.2786 and 3.1337
- WST-1 raw signal (Figure 5c) (HCT116 cells [1]; conc 1.56e-6, 125 mJ/cm2 UV): 2.9405 and 3.1793
- WST-1 raw signal (Figure 5c) (HCT116 cells [1]; conc 1.56e-6, no UV): 3.373 and 3.3554
- WST-1 raw signal (Figure 5c) (HCT116 cells [1]; conc 3.13e-6, 5mJ/cm2 UV): 2.8932 and 3.2752
- WST-1 raw signal (Figure 5c) (HCT116 cells [1]; conc 3.13e-6, 125 mJ/cm2 UV): 3.2783 and 2.5154
- WST-1 raw signal (Figure 5c) (HCT116 cells [1]; conc 3.13e-6, no UV): 3.1639 and 3.0204
- WST-1 raw signal (Figure 5c) (HCT116 cells [1]; conc 6.25e-6, 5mJ/cm2 UV): 3.1968 and 2.1952
- WST-1 raw signal (Figure 5c) (HCT116 cells [1]; conc 6.25e-6, 125 mJ/cm2 UV): 2.1994 and 1.9427
- WST-1 raw signal (Figure 5c) (HCT116 cells [1]; conc 6.25e-6, no UV): 2.8791 and 2.2497
- WST-1 raw signal (Figure 5c) (HCT116 cells [1]; conc 1.25e-5, 5mJ/cm2 UV): 0.8793 and 1.0754
- WST-1 raw signal (Figure 5c) (HCT116 cells [1]; conc 1.25e-5, 125 mJ/cm2 UV): 1.8196 and 1.0192
- WST-1 raw signal (Figure 5c) (HCT116 cells [1]; conc 1.25e-5, no UV): 1.2465 and 0.8301
- WST-1 raw signal (Figure 5c) (HCT116 cells [1]; conc 2.5e-5, 5mJ/cm2 UV): 0.2188 and 0.2466
- WST-1 raw signal (Figure 5c) (HCT116 cells [1]; conc 2.5e-5, 125 mJ/cm2 UV): 0.4428 and 0.3571
- WST-1 raw signal (Figure 5c) (HCT116 cells [1]; conc 2.5e-5, no UV): 0.23 and 0.2464
- WST-1 raw signal (Figure 5c) (HCT116 cells [1]; conc 5e-5, 5mJ/cm2 UV): 0.1582 and 0.148
- WST-1 raw signal (Figure 5c) (HCT116 cells [1]; conc 5e-5, 125 mJ/cm2 UV): 0.1729 and 0.1634
- WST-1 raw signal (Figure 5c) (HCT116 cells [1]; conc 5e-5, no UV): 0.1562 and 0.1551
- WST-1 raw signal (Figure 5c) (HCT116 cells [1]; conc 1.95E-07, 5mJ/cm2 UV): 3.319 and 3.3471
- WST-1 raw signal (Figure 5c) (HCT116 cells [1]; conc 1.95E-07, 125 mJ/cm2 UV): 2.9662 and 3.2767
- WST-1 raw signal (Figure 5c) (HCT116 cells [1]; conc 1.95E-07, no UV): 3.3384 and 3.3351
- WST-1 raw signal (Figure 5c) (HCT116 cells [1]; conc 3.91E-07, 5mJ/cm2 UV): 3.2173 and 2.6279
- WST-1 raw signal (Figure 5c) (HCT116 cells [1]; conc 3.91E-07, 125 mJ/cm2 UV): 3.2982
- WST-1 raw signal (Figure 5c) (HCT116 cells [1]; conc 3.91E-07, no UV): 3.3319 and 2.4545
- WST-1 raw signal (Figure 5c) (HCT116 cells [1]; conc 7.81E-07, 5mJ/cm2 UV): 3.0666 and 2.7778
- WST-1 raw signal (Figure 5c) (HCT116 cells [1]; conc 7.81E-07, 125 mJ/cm2 UV): 3.2287 and 3.2519
- WST-1 raw signal (Figure 5c) (HCT116 cells [1]; conc 7.81E-07, no UV): 3.286 and 3.3592
- WST-1 raw signal (Figure 5c) (HCT116 cells [1]; conc 9.77E-08, 5mJ/cm2 UV): 3.3085 and 3.2577
- WST-1 raw signal (Figure 5c) (HCT116 cells [1]; conc 9.77E-08, 125 mJ/cm2 UV): 3.2825 and 3.2983
- WST-1 raw signal (Figure 5c) (HCT116 cells [1]; conc 9.77E-08, no UV): 3.2977 and 3.3288
- ROS in the presence of UVA (ratio after/before UVA) (HCT116 cells [2]): not
- potentiation of CPD formation by UVA (U2OS cells): not
- DNA damage (γ-H2AX) in the presence of UVA [3]: not
- synthetic lethality with loss of HR repair [4]: synthetic lethal
